Columns and labels:
ABL1 = ABL1 (Homo sapiens, UniProt P00519); test: In vitro kinase assay (Kinase-Glo / ADP-Glo); format: biochemical; settings: TGI1002 1 µM; means of two independent experiments; read-out: Inhibitory effect (%)
Procedure: (§1) All kinase reactions were carried out in 384-well plates. After addition of the compounds, kinase and ATP-substrate were added to the assay plates successively, the assay plates were centrifuged at 1,000 x g for 1 min and incubated for 1 h at 30 °C. Then, Kinase-Glo Plus or ADP-Glo reagent was added to each well. In Kinase-Glo assay, after addition of the reagent for 20 min, the luminescence was measured on an EnVision Multilabel Plate Reader (Perkin-Elmer). In ADP-Glo assay, after addition of the reagent for 40 min, Kinase Detection Reagent was added and incubated for another 30 min at 27 °C, and then the luminescence was measured. Kinase inhibition rates were calculated per manufacturer's instructions.

AKT2 = AKT2 (Homo sapiens, UniProt P31751); test: In vitro kinase assay (Kinase-Glo / ADP-Glo); format: biochemical; settings: TGI1002 1 µM; means of two independent experiments; read-out: Inhibitory effect (%)
Procedure: as §1

ALK = ALK (Homo sapiens, UniProt Q9UM73); test: In vitro kinase assay (Kinase-Glo / ADP-Glo); format: biochemical; settings: TGI1002 1 µM; means of two independent experiments; read-out: Inhibitory effect (%)
Procedure: as §1

AMPK (A2/B1/G1) = AMPK (A2/B1/G1) (Homo sapiens, UniProt P54646); test: In vitro kinase assay (Kinase-Glo / ADP-Glo); format: biochemical; settings: TGI1002 1 µM; means of two independent experiments; read-out: Inhibitory effect (%)
Chain of AMPK (A2/B1/G1) (P54646 whole entry): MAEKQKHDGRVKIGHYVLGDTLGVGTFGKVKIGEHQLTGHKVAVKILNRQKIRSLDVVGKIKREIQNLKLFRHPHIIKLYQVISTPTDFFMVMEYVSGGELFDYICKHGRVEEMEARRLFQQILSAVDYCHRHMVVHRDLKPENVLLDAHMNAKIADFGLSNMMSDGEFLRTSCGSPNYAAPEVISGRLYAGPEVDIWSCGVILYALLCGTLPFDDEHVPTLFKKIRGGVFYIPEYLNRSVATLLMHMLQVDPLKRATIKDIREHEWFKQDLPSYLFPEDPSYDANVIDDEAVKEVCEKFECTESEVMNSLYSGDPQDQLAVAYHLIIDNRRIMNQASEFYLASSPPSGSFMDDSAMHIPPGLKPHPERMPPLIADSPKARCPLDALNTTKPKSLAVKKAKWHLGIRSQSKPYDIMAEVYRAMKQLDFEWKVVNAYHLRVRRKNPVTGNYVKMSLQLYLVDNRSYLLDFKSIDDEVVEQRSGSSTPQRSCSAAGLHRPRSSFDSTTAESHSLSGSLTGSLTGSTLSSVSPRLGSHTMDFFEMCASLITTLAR
Chain of AMPK (A2/B1/G1) (Q9Y478 whole entry partner): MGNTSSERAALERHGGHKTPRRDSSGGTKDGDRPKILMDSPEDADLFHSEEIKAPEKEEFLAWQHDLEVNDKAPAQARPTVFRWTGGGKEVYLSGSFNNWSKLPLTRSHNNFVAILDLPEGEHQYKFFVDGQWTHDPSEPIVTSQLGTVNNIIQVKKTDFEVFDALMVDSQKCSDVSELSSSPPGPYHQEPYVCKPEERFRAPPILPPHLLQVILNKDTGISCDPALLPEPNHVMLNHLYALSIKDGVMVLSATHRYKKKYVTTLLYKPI
Chain of AMPK (A2/B1/G1) (P54619 whole entry partner): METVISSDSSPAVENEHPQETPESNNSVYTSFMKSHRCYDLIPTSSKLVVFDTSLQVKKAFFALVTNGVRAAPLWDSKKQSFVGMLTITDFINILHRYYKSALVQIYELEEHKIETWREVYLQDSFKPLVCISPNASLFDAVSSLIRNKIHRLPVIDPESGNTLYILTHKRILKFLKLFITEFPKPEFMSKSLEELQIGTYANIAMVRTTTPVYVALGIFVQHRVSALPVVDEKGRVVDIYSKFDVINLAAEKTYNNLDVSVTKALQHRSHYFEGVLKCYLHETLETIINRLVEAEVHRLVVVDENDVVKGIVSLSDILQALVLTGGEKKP
Procedure: as §1

BLK = BLK (Homo sapiens, UniProt P51451); test: In vitro kinase assay (Kinase-Glo / ADP-Glo); format: biochemical; settings: TGI1002 1 µM; means of two independent experiments; read-out: Inhibitory effect (%)
Procedure: as §1

CAMK1 = CAMK1 (Homo sapiens, UniProt Q14012); test: In vitro kinase assay (Kinase-Glo / ADP-Glo); format: biochemical; settings: TGI1002 1 µM; means of two independent experiments; read-out: Inhibitory effect (%)
Procedure: as §1

CDK1/CyclinA2 = CDK1/CyclinA2 (Homo sapiens, UniProt P06493); test: In vitro kinase assay (Kinase-Glo / ADP-Glo); format: biochemical; settings: TGI1002 1 µM; means of two independent experiments; read-out: Inhibitory effect (%)
Procedure: as §1

CDK4/CyclinD1 = CDK4/CyclinD1 (Homo sapiens, UniProt P11802); test: In vitro kinase assay (Kinase-Glo / ADP-Glo); format: biochemical; settings: TGI1002 1 µM; means of two independent experiments; read-out: Inhibitory effect (%)
Procedure: as §1

EGFR(T790M,L858R) = EGFR(T790M,L858R) (Homo sapiens, UniProt P00533, L858R/T790M); test: In vitro kinase assay (Kinase-Glo / ADP-Glo); format: biochemical; settings: TGI1002 1 µM; means of two independent experiments; read-out: Inhibitory effect (%)
Chain of EGFR(T790M,L858R) (P00533 25-1210 T790M/L858R): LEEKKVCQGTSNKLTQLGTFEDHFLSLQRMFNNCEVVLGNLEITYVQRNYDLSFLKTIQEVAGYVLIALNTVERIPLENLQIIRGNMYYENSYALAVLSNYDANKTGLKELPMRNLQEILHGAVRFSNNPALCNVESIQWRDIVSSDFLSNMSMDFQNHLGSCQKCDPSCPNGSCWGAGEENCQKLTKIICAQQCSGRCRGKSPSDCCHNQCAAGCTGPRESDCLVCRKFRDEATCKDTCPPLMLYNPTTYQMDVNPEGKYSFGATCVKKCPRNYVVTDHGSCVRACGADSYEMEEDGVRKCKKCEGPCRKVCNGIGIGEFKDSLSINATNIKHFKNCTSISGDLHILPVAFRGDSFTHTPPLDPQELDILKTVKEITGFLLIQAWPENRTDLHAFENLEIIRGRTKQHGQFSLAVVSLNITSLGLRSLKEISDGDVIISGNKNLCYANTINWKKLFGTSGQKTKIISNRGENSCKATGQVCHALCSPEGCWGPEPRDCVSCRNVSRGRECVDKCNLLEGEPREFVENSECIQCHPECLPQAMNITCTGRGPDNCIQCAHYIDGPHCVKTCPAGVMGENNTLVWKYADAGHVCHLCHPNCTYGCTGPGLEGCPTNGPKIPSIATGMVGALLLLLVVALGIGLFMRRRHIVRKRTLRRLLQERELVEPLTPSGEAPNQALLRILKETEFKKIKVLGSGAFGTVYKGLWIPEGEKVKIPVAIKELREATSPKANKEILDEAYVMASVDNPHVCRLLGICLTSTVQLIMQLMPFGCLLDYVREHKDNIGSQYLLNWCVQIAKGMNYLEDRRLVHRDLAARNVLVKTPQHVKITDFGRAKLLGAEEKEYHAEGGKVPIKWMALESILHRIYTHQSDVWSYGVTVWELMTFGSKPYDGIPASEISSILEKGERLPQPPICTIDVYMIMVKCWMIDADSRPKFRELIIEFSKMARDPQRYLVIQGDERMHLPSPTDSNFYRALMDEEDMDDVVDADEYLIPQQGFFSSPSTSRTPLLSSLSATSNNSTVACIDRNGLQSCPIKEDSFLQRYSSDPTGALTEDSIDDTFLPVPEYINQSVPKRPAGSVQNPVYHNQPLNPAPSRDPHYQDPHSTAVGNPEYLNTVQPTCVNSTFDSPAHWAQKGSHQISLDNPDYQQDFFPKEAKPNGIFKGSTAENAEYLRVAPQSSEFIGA
Procedure: as §1

ERK1 = ERK1 (Homo sapiens, UniProt P27361); test: In vitro kinase assay (Kinase-Glo / ADP-Glo); format: biochemical; settings: TGI1002 1 µM; means of two independent experiments; read-out: Inhibitory effect (%)
Procedure: as §1

EphA1 = EphA1 (Homo sapiens, UniProt P21709); test: In vitro kinase assay (Kinase-Glo / ADP-Glo); format: biochemical; settings: TGI1002 1 µM; means of two independent experiments; read-out: Inhibitory effect (%)
Procedure: as §1

EphB2 = EphB2 (Homo sapiens, UniProt P29323); test: In vitro kinase assay (Kinase-Glo / ADP-Glo); format: biochemical
Chain of EphB2 (P29323 19-1055, species assumed): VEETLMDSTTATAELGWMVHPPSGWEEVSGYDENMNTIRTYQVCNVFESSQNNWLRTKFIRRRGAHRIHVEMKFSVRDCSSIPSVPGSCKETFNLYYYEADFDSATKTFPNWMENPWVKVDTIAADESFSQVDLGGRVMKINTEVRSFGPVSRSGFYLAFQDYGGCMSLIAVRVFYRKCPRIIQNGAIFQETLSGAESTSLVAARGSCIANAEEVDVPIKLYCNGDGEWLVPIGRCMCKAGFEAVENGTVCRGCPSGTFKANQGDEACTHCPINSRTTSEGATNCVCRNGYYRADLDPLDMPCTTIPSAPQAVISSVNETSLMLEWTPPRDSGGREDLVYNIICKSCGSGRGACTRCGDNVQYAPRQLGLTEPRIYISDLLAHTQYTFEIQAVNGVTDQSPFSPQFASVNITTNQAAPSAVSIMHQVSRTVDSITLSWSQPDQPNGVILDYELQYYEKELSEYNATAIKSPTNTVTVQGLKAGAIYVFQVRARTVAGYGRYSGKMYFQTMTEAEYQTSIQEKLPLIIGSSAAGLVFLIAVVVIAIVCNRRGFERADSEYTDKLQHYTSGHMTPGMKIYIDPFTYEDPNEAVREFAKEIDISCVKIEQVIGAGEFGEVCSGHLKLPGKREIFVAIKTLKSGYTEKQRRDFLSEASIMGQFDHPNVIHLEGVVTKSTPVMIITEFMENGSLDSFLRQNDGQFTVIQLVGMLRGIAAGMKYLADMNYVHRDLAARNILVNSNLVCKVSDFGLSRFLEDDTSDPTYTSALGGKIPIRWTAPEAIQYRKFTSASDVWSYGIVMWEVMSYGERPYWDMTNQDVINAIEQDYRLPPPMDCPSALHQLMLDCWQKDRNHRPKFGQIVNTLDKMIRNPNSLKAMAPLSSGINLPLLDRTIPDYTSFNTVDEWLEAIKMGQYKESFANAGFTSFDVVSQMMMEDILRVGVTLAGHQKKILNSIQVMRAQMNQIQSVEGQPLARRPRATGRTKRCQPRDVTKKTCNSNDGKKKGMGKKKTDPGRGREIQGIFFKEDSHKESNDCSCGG
Procedure: as §1

FGFR1 = FGFR1 (Homo sapiens, UniProt P11362); test: In vitro kinase assay (Kinase-Glo / ADP-Glo); format: biochemical; settings: TGI1002 1 µM; means of two independent experiments; read-out: Inhibitory effect (%)
Procedure: as §1

GSK3β = GSK3β (Homo sapiens, UniProt P49841); test: In vitro kinase assay (Kinase-Glo / ADP-Glo); format: biochemical; settings: TGI1002 1 µM; means of two independent experiments; read-out: Inhibitory effect (%)
Procedure: as §1

JNK1 = JNK1 (Homo sapiens, UniProt P45983); test: In vitro kinase assay (Kinase-Glo / ADP-Glo); format: biochemical; settings: TGI1002 1 µM; means of two independent experiments; read-out: Inhibitory effect (%)
Procedure: as §1

NEK2 = NEK2 (Homo sapiens, UniProt P51955); test: In vitro kinase assay (Kinase-Glo / ADP-Glo); format: biochemical; settings: TGI1002 1 µM; means of two independent experiments; read-out: Inhibitory effect (%)
Procedure: as §1

PDGFRα = PDGFRα (Homo sapiens, UniProt P16234); test: In vitro kinase assay (Kinase-Glo / ADP-Glo); format: biochemical
Chain of PDGFRα (P16234 24-1089, species assumed): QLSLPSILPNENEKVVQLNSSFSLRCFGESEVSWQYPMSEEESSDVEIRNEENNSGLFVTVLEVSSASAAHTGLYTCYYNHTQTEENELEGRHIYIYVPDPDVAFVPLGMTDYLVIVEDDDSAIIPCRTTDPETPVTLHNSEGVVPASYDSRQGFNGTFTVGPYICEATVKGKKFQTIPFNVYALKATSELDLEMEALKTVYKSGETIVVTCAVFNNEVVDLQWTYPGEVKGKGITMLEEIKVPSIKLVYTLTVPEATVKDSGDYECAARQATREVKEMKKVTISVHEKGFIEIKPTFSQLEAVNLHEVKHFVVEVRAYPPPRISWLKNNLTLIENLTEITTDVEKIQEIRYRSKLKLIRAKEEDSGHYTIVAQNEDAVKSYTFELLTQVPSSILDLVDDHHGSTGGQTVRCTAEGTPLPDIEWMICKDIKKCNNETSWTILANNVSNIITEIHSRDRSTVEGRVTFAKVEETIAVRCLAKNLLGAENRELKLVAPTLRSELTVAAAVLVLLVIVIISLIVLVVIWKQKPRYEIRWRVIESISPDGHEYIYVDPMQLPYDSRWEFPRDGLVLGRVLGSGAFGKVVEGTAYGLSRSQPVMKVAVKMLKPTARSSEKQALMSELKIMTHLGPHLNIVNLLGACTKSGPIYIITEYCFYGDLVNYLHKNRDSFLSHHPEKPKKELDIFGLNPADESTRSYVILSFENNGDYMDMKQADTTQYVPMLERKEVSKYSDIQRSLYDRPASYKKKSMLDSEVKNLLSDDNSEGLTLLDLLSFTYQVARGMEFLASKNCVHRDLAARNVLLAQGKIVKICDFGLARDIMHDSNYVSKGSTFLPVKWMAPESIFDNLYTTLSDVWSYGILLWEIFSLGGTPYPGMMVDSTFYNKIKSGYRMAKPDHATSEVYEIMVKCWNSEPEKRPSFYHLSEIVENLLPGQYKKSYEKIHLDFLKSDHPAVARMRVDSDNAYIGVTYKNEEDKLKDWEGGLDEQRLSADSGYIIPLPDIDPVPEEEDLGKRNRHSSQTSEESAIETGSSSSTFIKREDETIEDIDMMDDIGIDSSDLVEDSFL
Procedure: as §1

PDGFRβ = PDGFRβ (Homo sapiens, UniProt P09619); test: In vitro kinase assay (Kinase-Glo / ADP-Glo); format: biochemical; settings: TGI1002 1 µM; means of two independent experiments; read-out: Inhibitory effect (%)
Procedure: as §1

PI3Kα = PI3Kα (Homo sapiens, UniProt P42336); test: In vitro kinase assay (Kinase-Glo / ADP-Glo); format: biochemical; settings: TGI1002 1 µM; means of two independent experiments; read-out: Inhibitory effect (%)
Procedure: as §1

PKAcα = PKAcα (Homo sapiens, UniProt P17612); test: In vitro kinase assay (Kinase-Glo / ADP-Glo); format: biochemical; settings: TGI1002 1 µM; means of two independent experiments; read-out: Inhibitory effect (%)
Procedure: as §1

PKCα = PKCα (Homo sapiens, UniProt P17252); test: In vitro kinase assay (Kinase-Glo / ADP-Glo); format: biochemical; settings: TGI1002 1 µM; means of two independent experiments; read-out: Inhibitory effect (%)
Procedure: as §1

PKCγ = PKCγ (Homo sapiens, UniProt P05129); test: In vitro kinase assay (Kinase-Glo / ADP-Glo); format: biochemical; settings: TGI1002 1 µM; means of two independent experiments; read-out: Inhibitory effect (%)
Procedure: as §1

PLK3 = PLK3 (Homo sapiens, UniProt Q9H4B4); test: In vitro kinase assay (Kinase-Glo / ADP-Glo); format: biochemical; settings: TGI1002 1 µM; means of two independent experiments; read-out: Inhibitory effect (%)
Procedure: as §1

RON = RON (Homo sapiens, UniProt Q04912); test: In vitro kinase assay (Kinase-Glo / ADP-Glo); format: biochemical; settings: TGI1002 1 µM; means of two independent experiments; read-out: Inhibitory effect (%)
Procedure: as §1

TrkB = TrkB (Homo sapiens, UniProt Q16620); test: In vitro kinase assay (Kinase-Glo / ADP-Glo); format: biochemical; settings: TGI1002 1 µM; means of two independent experiments; read-out: Inhibitory effect (%)
Procedure: as §1

c-KIT = c-KIT (Homo sapiens, UniProt P10721); test: In vitro kinase assay (Kinase-Glo / ADP-Glo); format: biochemical; settings: TGI1002 1 µM; means of two independent experiments; read-out: Inhibitory effect (%)
Procedure: as §1

p38α = p38α (Homo sapiens, UniProt Q16539); test: In vitro kinase assay (Kinase-Glo / ADP-Glo); format: biochemical; settings: TGI1002 1 µM; means of two independent experiments; read-out: Inhibitory effect (%)
Chain of p38α (Q16539 whole entry): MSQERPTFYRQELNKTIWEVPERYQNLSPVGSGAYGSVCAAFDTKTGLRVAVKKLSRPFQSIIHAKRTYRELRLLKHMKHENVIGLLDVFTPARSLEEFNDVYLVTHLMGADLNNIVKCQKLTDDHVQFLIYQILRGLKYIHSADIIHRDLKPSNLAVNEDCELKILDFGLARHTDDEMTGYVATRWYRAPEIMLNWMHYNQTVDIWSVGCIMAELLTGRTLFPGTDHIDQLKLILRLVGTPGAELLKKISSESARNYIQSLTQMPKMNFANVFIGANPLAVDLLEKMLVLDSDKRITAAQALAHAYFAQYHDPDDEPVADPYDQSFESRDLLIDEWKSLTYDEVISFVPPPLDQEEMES
Procedure: as §1

K562 cells = test: Cytotoxicity assay (CellTiter-Glo); format: cell-based, human
Procedure: Twenty types of tumor cell lines were seeded at 4000 cells per well in 96-well plates. […] Cell viability was measured with the CellTiter-Glo Luminescent Cell Viability Assay (Promega) according to the manufacturer's instructions. Luminescence was measured using an EnVision Multilabel Plate Reader (Perkin-Elmer). The cytotoxicity of TGI1002 was expressed as the percentage of luminescence relative to that of untreated cells.

BaF3-p210^T315I cells = test: Cytotoxicity assay (CellTiter-Glo); format: cell-based, murine; settings: Mus musculus; TKI-resistant BaF3-p210^T315I cells, cell viability
Procedure: (§2) Twenty types of tumor cell lines were seeded at 4000 cells per well in 96-well plates. TGI1002 dissolved in phosphate saline was added to cells at final concentrations ranging from 0.5 nM to 100 μM for 120 h. Cell viability was measured with the CellTiter-Glo Luminescent Cell Viability Assay (Promega) according to the manufacturer's instructions. Luminescence was measured using an EnVision Multilabel Plate Reader (Perkin-Elmer). The cytotoxicity of TGI1002 was expressed as the percentage of luminescence relative to that of untreated cells.

HT-29 cells = test: Cytotoxicity assay (CellTiter-Glo); format: cell-based, human; settings: 120 h, panel of 20 tumor cell lines
Procedure: as §2

PC-3 cells = test: Cytotoxicity assay (CellTiter-Glo); format: cell-based, human; settings: 120 h, panel of 20 tumor cell lines
Procedure: as §2

[1] = TGI1002 1 µM, means of two independent experiments, read-out: Inhibitory effect (%)

Cc1ccc(NC(=O)c2cccc(CN3CCN(C)CC3)c2)cc1Oc1nccc(-c2cccnc2)n1.Cl [TGI1002, N-(4-methyl-3-((4-(pyridin-3-yl)-pyrimidin-2-yl)oxy)phenyl)-3-((4-methylpiperazin-1-yl)methyl)benzamide hydrochloride]
inhibition at 1 µM (ABL1): 4.3%
inhibition at 1 µM (AKT2): 4.72%
inhibition at 1 µM (ALK): 4.27%
inhibition at 1 µM (AMPK (A2/B1/G1)): 2.57%
inhibition at 1 µM (BLK): 3.39%
inhibition at 1 µM (CAMK1): 4.93%
inhibition at 1 µM (CDK1/CyclinA2): 5.27%
inhibition at 1 µM (CDK4/CyclinD1): 7.54%
inhibition at 1 µM (EGFR(T790M,L858R)): 8.74%
inhibition at 1 µM (ERK1): 0.01%
inhibition at 1 µM (EphA1): 1.58%
IC50 (EphB2; EphB2 kinase activity): 1.27 µM
inhibition at 1 µM (EphB2; [1]): 46.7%
inhibition at 1 µM (FGFR1): 9.71%
inhibition at 1 µM (GSK3β): 2.59%
inhibition at 1 µM (JNK1): 0.2%
inhibition at 1 µM (NEK2): 1.56%
IC50 (PDGFRα; PDGFRα kinase activity): 3.28 µM
inhibition at 1 µM (PDGFRα; [1]): 43.5%
inhibition at 1 µM (PDGFRβ): 17.2%
inhibition at 1 µM (PI3Kα): 2.66%
inhibition at 1 µM (PKAcα): 5.96%
inhibition at 1 µM (PKCα): 5.57%
inhibition at 1 µM (PKCγ): 0.79%
inhibition at 1 µM (PLK3): 4.71%
inhibition at 1 µM (RON): 0.14%
inhibition at 1 µM (TrkB): 5.58%
inhibition at 1 µM (c-KIT): 15.2%
inhibition at 1 µM (p38α): 2.17%
IC50 (K562 cells; Homo sapiens, 72 h, cell viability): 11 ± 1.98 µM
fold less potent than imatinib (K562 cells; IC50 at 72 h): approximately 35 fold
IC50 (BaF3-p210^T315I cells): 14.7 ± 2.61 µM
cytotoxicity (HT-29 cells): cytotoxic effects
cytotoxicity (PC-3 cells): cytotoxic effects
